The text below walks through data of patent publication US20250163086A1, “Crystalline Forms” (Viatris Asia Pacific Pte. Ltd., priority 2016, published 2025).

This data set is described as follows: Water content of the crystalline forms (gravimetric vapour sorption, 25° C.). The class given is physicochemical. The conditions noted are these: water content varies as a function of relative humidity; GVS profiles 20 to 75% RH at 25° C. (FIGS. 4-6); hydrochloride. On the procedure:
Measurements were performed on an IGASORP Model HAS-036-080 moisture sorption instrument (Hiden Isochema, Warrington, UK) operated in stepping mode at 25° C. The sample was allowed to equilibrate at the starting relative humidity (RH) before starting a pre-defined humidity program in steps of 5% ΔRH and with a maximal equilibration time of 24 hours per step. About 20 to 30 mg of each sample was used.

As to `CCCCOC(=O)N1CCN(C(=O)[C@H](CP(=O)(O)O)NC(=O)c2cc(N3CC[C@H](OC)C3)nc(-c3ccccc3)n2)CC1.Cl` [Crystalline form 1, 4-((R)-2-{[6-((S)-3-methoxy-pyrrolidin-1-yl)-2-phenyl-pyrimidine-4-carbonyl]-amino}-3-phosphono-propionyl)-piperazine-1-carboxylic acid butyl ester hydrochloride], the “coordinated and/or non-coordinated water comprised in the crystalline form” value is recorded as 0 to 3%.

`CCCCOC(=O)N1CCN(C(=O)[C@H](CP(=O)(O)O)NC(=O)c2cc(N3CC[C@H](OC)C3)nc(-c3ccccc3)n2)CC1.Cl` [Crystalline form 2, 4-((R)-2-{[6-((S)-3-methoxy-pyrrolidin-1-yl)-2-phenyl-pyrimidine-4-carbonyl]-amino}-3-phosphono-propionyl)-piperazine-1-carboxylic acid butyl ester hydrochloride]: the “coordinated and/or non-coordinated water comprised in the crystalline form” value is 5 to 10%.

Consider `CCCCOC(=O)N1CCN(C(=O)[C@H](CP(=O)(O)O)NC(=O)c2cc(N3CC[C@H](OC)C3)nc(-c3ccccc3)n2)CC1.Cl` [Crystalline form 3, 4-((R)-2-{[6-((S)-3-methoxy-pyrrolidin-1-yl)-2-phenyl-pyrimidine-4-carbonyl]-amino}-3-phosphono-propionyl)-piperazine-1-carboxylic acid butyl ester hydrochloride], for which the “coordinated and/or non-coordinated water comprised in the crystalline form” value is 2.5 to 8%.
